These results are taken from publication PMC12724200 (mSphere, 2025).

The test deals with M. bovis BCG. The test is classed as cell-based, Mycobacterium bovis BCG.

In the case of `NC[C@H]1O[C@H](O[C@H]2[C@H](O)[C@@H](O[C@H]3O[C@H](CO)[C@@H](O)[C@H](N)[C@H]3O)[C@H](N)C[C@@H]2N)[C@H](O)[C@@H](O)[C@@H]1O` [KM, kanamycin], the “Frequency of spontaneously generated drug-resistant colonies” value is reported as 6.3 × 10^−6. The value for `[H]/N=C(/N)N[C@H]1[C@H](O)[C@@H](O)[C@H](O[C@@H]2O[C@@H](C)[C@](O)(C=O)[C@H]2O[C@@H]2O[C@@H](CO)[C@H](O)[C@@H](O)[C@@H]2NC)[C@@H](N/C(N)=N\[H])[C@@H]1O` [SM, streptomycin] was 3.1 × 10^−7; that for `NNC(=O)c1ccncc1` [INH, isoniazid] was 2.0 × 10^−6; that for `CO[C@H]1/C=C/O[C@@]2(C)Oc3c(C)c(O)c4c(O)c(c(/C=N/N5CCN(C)CC5)c(O)c4c3C2=O)NC(=O)/C(C)=C\C=C\[C@H](C)[C@H](O)[C@@H](C)[C@@H](O)[C@@H](C)[C@H](OC(C)=O)[C@@H]1C` [RFP, rifampicin] was 5.2 × 10^−9. Consider `CC[C@@H](CO)NCCN[C@@H](CC)CO` [EB, ethambutol], for which the “Frequency of spontaneously generated drug-resistant colonies” value is reported as 4.5 × 10^−6.
